Experimental data as given in PubChem BioAssay AID1963843 (Molecular Pharmacology Branch, DTP, NCI, 2024).

Test system: 616215-338-R-J1-PDC complex spheroid viability
Assay: Anticancer human tumor 616215-338-R-J1-PDC patient-derived colon adenocarcinoma cell line growth inhibition [POLQ]
Details: for IC50: curve of first compound; for viability, T/C: stronger effect = lower value
How it was run: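 Complex spheroid viability model combining PDC tumour cells with endothelial (HUVEC) and MSC stromal cells. Novobiocin, ART-558 or RP6685 were tested singly and in combination with standard and investigational anticancer drugs. Each was titrated in half-log steps from near clinical Cmax, or from 10 microM where Cmax was unknown.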

[1] = second compound 0.0316 µM, first compound 0.0316 µM
[2] = second compound 0.0316 µM, first compound 0.1 µM
[3] = second compound 0.0316 µM, first compound 0.316 µM
[4] = second compound 0.0316 µM, first compound 1 µM
[5] = second compound 0.0316 µM, first compound 3.16 µM
[6] = second compound 0.0316 µM, first compound 10 µM
[7] = second compound 0.1 µM, first compound 0.0316 µM
[8] = second compound 0.1 µM, first compound 0.1 µM
[9] = second compound 0.1 µM, first compound 0.316 µM
[10] = second compound 0.1 µM, first compound 1 µM
[11] = second compound 0.1 µM, first compound 3.16 µM
[12] = second compound 0.1 µM, first compound 10 µM
[13] = second compound 0.316 µM, first compound 0.0316 µM
[14] = second compound 0.316 µM, first compound 0.1 µM
[15] = second compound 0.316 µM, first compound 0.316 µM
[16] = second compound 0.316 µM, first compound 1 µM
[17] = second compound 0.316 µM, first compound 3.16 µM
[18] = second compound 0.316 µM, first compound 10 µM
[19] = second compound 1 µM, first compound 0.0316 µM
[20] = second compound 1 µM, first compound 0.1 µM
[21] = second compound 1 µM, first compound 0.316 µM
[22] = second compound 1 µM, first compound 1 µM
[23] = second compound 1 µM, first compound 3.16 µM
[24] = second compound 1 µM, first compound 10 µM
[25] = second compound 3.16 µM, first compound 0.0316 µM
[26] = second compound 3.16 µM, first compound 0.1 µM
[27] = second compound 3.16 µM, first compound 0.316 µM
[28] = second compound 3.16 µM, first compound 1 µM
[29] = second compound 3.16 µM, first compound 3.16 µM
[30] = second compound 3.16 µM, first compound 10 µM
[31] = second compound 10 µM, first compound 0.0316 µM
[32] = second compound 10 µM, first compound 0.1 µM
[33] = second compound 10 µM, first compound 0.316 µM
[34] = second compound 10 µM, first compound 1 µM
[35] = second compound 10 µM, first compound 3.16 µM
[36] = second compound 10 µM, first compound 10 µM
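Further: spheroids exposed to compounds for one week before readout.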
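Wherever viability, T/C is given: percent viability relative to DMSO vehicle wells taken as 100%.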

For `COc1ccc([C@@H](O)c2cc(-c3ncnc4cc(N5CCOCC5)ccc34)c(F)cc2Cl)nn1` + Nc1ccc(C#CCN(C(=O)Cc2ncc(C(F)(F)F)cc2C(F)(F)F)c2ccc(F)cc2)nn1, the IC50 (second compound 0.0316 µM) was > 10000 nM, the IC50 (second compound 0.1 µM) was 9540 nM and the IC50 (second compound 0.316 µM) was > 10000 nM. The IC50 (second compound 1 µM) was > 10000 nM, the IC50 (second compound 3.16 µM) was > 10000 nM and the IC50 (second compound 10 µM) was 4730 nM. The viability, T/C [1] was 90.8%, the viability, T/C [2] was 106% and the viability, T/C [3] was 96%. For the same molecule, the viability, T/C [4] was 93%, the viability, T/C [5] was 95.8% and the viability, T/C [6] was 61.9%. The viability, T/C [7] was 90.6%, the viability, T/C [8] was 115% and the viability, T/C [9] was 106%. The viability, T/C [10] was 94%, the viability, T/C [11] was 92.3% and the viability, T/C [12] was 47.7%. It also gave a viability, T/C [13] of 97.4%, a viability, T/C [14] of 92.1% and a viability, T/C [15] of 96.9%. It also gave a viability, T/C [16] of 107%, a viability, T/C [17] of 90.3% and a viability, T/C [18] of 52.7%. For the same molecule, the viability, T/C [19] was 107%, the viability, T/C [20] was 118% and the viability, T/C [21] was 94.5%. The viability, T/C [22] was 87.2%, the viability, T/C [23] was 94.4% and the viability, T/C [24] was 49.8%. It also gave a viability, T/C [25] of 113%, a viability, T/C [26] of 109% and a viability, T/C [27] of 93.7%. For the same molecule, the viability, T/C [28] was 85.7%, the viability, T/C [29] was 77.7% and the viability, T/C [30] was 47.9%. For the same molecule, the viability, T/C [31] was 103%, the viability, T/C [32] was 99.9% and the viability, T/C [33] was 88.7%. For the same molecule, the viability, T/C [34] was 76.5%, the viability, T/C [35] was 45.8% and the viability, T/C [36] was 50%.
`Cn1ncnc1[C@H]1c2n[nH]c(=O)c3cc(F)cc(c23)N[C@@H]1c1ccc(F)cc1` + Nc1ccc(C#CCN(C(=O)Cc2ncc(C(F)(F)F)cc2C(F)(F)F)c2ccc(F)cc2)nn1 was tested, and the IC50 (second compound 0.0316 µM) was > 100 nM, the IC50 (second compound 0.1 µM) was > 100 nM and the IC50 (second compound 0.316 µM) was > 100 nM. The IC50 (second compound 1 µM) was > 100 nM, the IC50 (second compound 3.16 µM) was > 100 nM and the IC50 (second compound 10 µM) was > 100 nM. It also gave a viability, T/C (second compound 0.0316 µM, first compound 0.000316 µM) of 104%, a viability, T/C (second compound 0.0316 µM, first compound 0.001 µM) of 106% and a viability, T/C (second compound 0.0316 µM, first compound 0.00316 µM) of 99.7%. For the same molecule, the viability, T/C (second compound 0.0316 µM, first compound 0.01 µM) was 95.1%, the viability, T/C [1] was 88.5% and the viability, T/C [2] was 86.7%. The viability, T/C (second compound 0.1 µM, first compound 0.000316 µM) was 112%, the viability, T/C (second compound 0.1 µM, first compound 0.001 µM) was 91.6% and the viability, T/C (second compound 0.1 µM, first compound 0.00316 µM) was 107%. For the same molecule, the viability, T/C (second compound 0.1 µM, first compound 0.01 µM) was 113%, the viability, T/C [7] was 108% and the viability, T/C [8] was 77.6%. It also gave a viability, T/C (second compound 0.316 µM, first compound 0.000316 µM) of 106%, a viability, T/C (second compound 0.316 µM, first compound 0.001 µM) of 97.3% and a viability, T/C (second compound 0.316 µM, first compound 0.00316 µM) of 111%. It also gave a viability, T/C (second compound 0.316 µM, first compound 0.01 µM) of 97.2%, a viability, T/C [13] of 104% and a viability, T/C [14] of 83%. For the same molecule, the viability, T/C (second compound 1 µM, first compound 0.000316 µM) was 108%, the viability, T/C (second compound 1 µM, first compound 0.001 µM) was 99.9% and the viability, T/C (second compound 1 µM, first compound 0.00316 µM) was 110%. The viability, T/C (second compound 1 µM, first compound 0.01 µM) was 93.9%, the viability, T/C [19] was 91.2% and the viability, T/C [20] was 77.6%. For the same molecule, the viability, T/C (second compound 3.16 µM, first compound 0.000316 µM) was 99.4%, the viability, T/C (second compound 3.16 µM, first compound 0.001 µM) was 98% and the viability, T/C (second compound 3.16 µM, first compound 0.00316 µM) was 103%. The viability, T/C (second compound 3.16 µM, first compound 0.01 µM) was 90.5%, the viability, T/C [25] was 99.3% and the viability, T/C [26] was 95.7%. It also gave a viability, T/C (second compound 10 µM, first compound 0.000316 µM) of 94.8%, a viability, T/C (second compound 10 µM, first compound 0.001 µM) of 98.7% and a viability, T/C (second compound 10 µM, first compound 0.00316 µM) of 101%. The viability, T/C (second compound 10 µM, first compound 0.01 µM) was 90.9%, the viability, T/C [31] was 89.9% and the viability, T/C [32] was 65.1%.
For `Nc1ccn(C2OC(CO)C(O)C2(F)F)c(=O)n1` (stereo unspecified) + Nc1ccc(C#CCN(C(=O)Cc2ncc(C(F)(F)F)cc2C(F)(F)F)c2ccc(F)cc2)nn1, the IC50 (second compound 0.0316 µM) was < 31.6 nM, the IC50 (second compound 0.1 µM) was < 31.6 nM and the IC50 (second compound 0.316 µM) was < 31.6 nM. The IC50 (second compound 1 µM) was < 31.6 nM, the IC50 (second compound 3.16 µM) was < 31.6 nM and the IC50 (second compound 10 µM) was < 31.6 nM. It also gave a viability, T/C [1] of 22.1%, a viability, T/C [2] of 17.1% and a viability, T/C [3] of 10.8%. For the same molecule, the viability, T/C [4] was 10.9%, the viability, T/C [5] was 14.9% and the viability, T/C [6] was 16.1%. For the same molecule, the viability, T/C [7] was 27.7%, the viability, T/C [8] was 15.5% and the viability, T/C [9] was 12.6%. It also gave a viability, T/C [10] of 12.6%, a viability, T/C [11] of 12.6% and a viability, T/C [12] of 12.6%. For the same molecule, the viability, T/C [13] was 28.6%, the viability, T/C [14] was 24.1% and the viability, T/C [15] was 10.9%. For the same molecule, the viability, T/C [16] was 13.3%, the viability, T/C [17] was 12.6% and the viability, T/C [18] was 13.8%. The viability, T/C [19] was 22.7%, the viability, T/C [20] was 15.2% and the viability, T/C [21] was 11.2%. It also gave a viability, T/C [22] of 12.6%, a viability, T/C [23] of 13.1% and a viability, T/C [24] of 13.3%. It also gave a viability, T/C [25] of 23.6%, a viability, T/C [26] of 19.6% and a viability, T/C [27] of 12%. It also gave a viability, T/C [28] of 10.3%, a viability, T/C [29] of 13.6% and a viability, T/C [30] of 13.9%. The viability, T/C [31] was 26.8%, the viability, T/C [32] was 20.3% and the viability, T/C [33] was 12.2%. The viability, T/C [34] was 12.6%, the viability, T/C [35] was 11.3% and the viability, T/C [36] was 12.2%.
